Results reported in patent publication US6664224B2, “Quaternary ammonium salt and process for the preparation thereof” (priority 2000, dated 2003).

What was measured:
Bacillus cereus IFO 3001 = assay: Minimum bactericidal concentration (MBC) against bacteria; type: cell-based; details: contact 30° C. 30 minutes, culture 37° C. 24 hours
Experimental: (§1) A bacteria solution in the initial stage of logarithmic productive phase which had been adjusted with a nutrient broth according to an ordinary sterilized water dilution method such that the concentration of bacterial suspension reached 10^6 cell/ml was brought into contact with chemical solutions having concentrations which vary stepwise at a temperature of 30° C. for 30 minutes, and then transplanted to a nutrient broth where it was then allowed to stand at a temperature of 37° C. for 24 hours for culture. The nutrient broth was then examined to see if the proliferation of bacteria occurred. Thus, MBC was determined.
(§2) Five kinds of gram-negative bacteria and four kinds of gram-positive bacteria were used as sample bacteria.
(§3) BAMP-6 (Example 12), BAMD-6,8 (Example 13), BAMT-6 (Example 17) and benzalkonium chloride (Comparative Example 1) were determined for MBC value against 5 kinds of gram-negative bacteria and 4 kinds of gram-positive bacteria in the same manner as in Test Example 1.

[1] = test system: Bacillus subtilis IFO 3134; assay: as above; type: cell-based; details: contact 30° C. 30 minutes, culture 37° C. 24 hours
Experimental: as §1, §2, §3

[2] = test system: Escherichia coli K12 OUT 8401; assay: as above; type: cell-based; details: contact 30° C. 30 minutes, culture 37° C. 24 hours
Experimental: as §1, §2, §3

[3] = test system: Escherichia coli K12 W 3110; assay: as above; type: cell-based; details: contact 30° C. 30 minutes, culture 37° C. 24 hours
Experimental: as §1, §2, §3

[4] = test system: Klebsiella pneumoniae ATCC 13883; assay: as above; type: cell-based; details: contact 30° C. 30 minutes, culture 37° C. 24 hours
Experimental: as §1, §2, §3

Proteus rettgeri NIT 96 = assay: as above; type: cell-based; details: contact 30° C. 30 minutes, culture 37° C. 24 hours
Experimental: as §1, §2, §3

[5] = test system: Pseudomonas aeruginosa ATCC 27583; assay: as above; type: cell-based; details: contact 30° C. 30 minutes, culture 37° C. 24 hours
Experimental: as §1, §2, §3

[6] = test system: Staphylococcus aureus IFO 12732; assay: as above; type: cell-based; details: contact 30° C. 30 minutes, culture 37° C. 24 hours
Experimental: as §1, §2, §3

[7] = test system: Bacillus substilis ATCC 6633; assay: as above; type: cell-based, Bacillus subtilis; details: contact 30° C. 30 minutes, culture 37° C. 24 hours
Experimental: as §1, §2, §3

[8] = test system: Escherichia coli K12 W 3110; assay: Minimum development inhibiting concentration (MIC) against bacteria, broth dilution method; type: cell-based; details: 37° C. 24 hours
Experimental: A bacteria solution in stationary state which had been adjusted with a nutrient broth according to an ordinary broth dilution method such that the concentration of bacterial suspension reached 10^6 cell/ml was added to chemical solutions having concentrations which vary stepwise where it was then allowed to stand at a temperature of 37° C. for 24 hours for culture. The bacteria solution was then examined to see if the proliferation of bacteria occurred. Thus, MIC was determined.
Escherichia coli K12 W 3110 was used as a sample bacterium. Compounds obtained in Examples 1 to 9 and benzalkonium chloride prepared in Comparative Example 1 were used as test samples.
The compounds obtained in Examples 10 to 19 and benzalkonium chloride were determined for MIC value against Escherichia coli K12 W 3110 in the same manner as in Test Example 3.

Erythrocyte = assay: Minimum hemolytic activity concentration against erythrocyte; type: cell-based; details: human erythrocyte, 37° C. 1 hour, O.D.540, 50% hemolysis
Experimental: Human blood was collected. The sample blood was then mixed with the equal amount of alsebar solution (glucose: 2.05 g; NaCl: 0.42 g; sodium citrate: 0.8 g; citric acid: 0.55 g; pH: 6.1). The mixture was then stored at a temperature of 4° C. Shortly before used for experiment, the alsebar stored blood was subjected to centrifugal separation. Thus, the supernatant liquid and the leukocyte layer on the erythrocyte were removed. To the erythrocyte was then added PBS in an amount of […] that of the erythrocyte to obtain a 50% erythrocyte. 10 μl of the 50% erythrocyte was then mixed with 990 μl of each of chemicals which had been diluted with PBS in amounts varying stepwise. The erythrocyte was acted upon by the chemical at a temperature of 37° C. for 1 hour. The mixture was then subjected to centrifugal separation. The supernatant liquid was collected for the measurement of the optical density at 540 nm (O.D.540). Separately, the foregoing procedure was followed except that no chemicals were used to prepare a 0% hemolytic control. The foregoing procedure was followed except that Milliq water was used instead of PBS to prepare a 100% hemolytic control. For the minimum hemolytic activity concentration of chemical, the minimum concentration at which the hemolytic concentration is […] was determined.

[9] = Interaction with eye drop components (visual transparency); type: physicochemical; details: for Results (transparency of neutralized solution): in 1% sodium chloride solution
Experimental: Eye drop components and the preservative of the invention were dissolved in a 1% sodium chloride solution. The solution was then neutralized with a proper amount of diluted hydrochloric acid or sodium hydroxide. The neutralized solution thus obtained was then visually observed for transparency. Chondroitin sodium sulfate (hereinafter abbreviated as “SKA”), sodium hyaluronate (hereinafter abbreviated as “SHA”), sodium cromoglicate (hereinafter abbreviated as “SCA”), sodium dimethylisopropylazulenesulfonate (hereinafter abbreviated as “SDPA”), and flavin-adenine dinucleotide (hereinafter abbreviated as “FA”) were used as the eye drop components. 4BAMP-6C (Example 1) and benzalkonium chloride (Comparative Example 1) were used as test samples of preservative.

E. coli = assay: Anti-septic power test (USP XX); type: cell-based, Escherichia coli; details: test sample 0.002 wt %
Experimental: (§4) Solutions prepared according to the formulation set forth in Tables 10 and 11 below were subjected to anti-septic power test according to the method defined in Pharmacopoeia of the United States XX, 873 (1980). The solutions thus tested were then observed for anti-septic power after 1 hour, 4 hours, 24 hours, 7 days, 14 days, 21 days and 28 days. As test microorganisms, E. coli, P. auru. and S. Aureus were used as bacteria and A. niger and C. albicans were used as fungi. 4BAMP-6C and benzalkonium chloride were used as test samples.

P. aeruginosa = assay: Anti-septic power test (USP XX); type: cell-based, Pseudomonas aeruginosa; details: test sample 0.002 wt %
Experimental: as §4

S. aureus = assay: Anti-septic power test (USP XX); type: cell-based, Staphylococcus aureus; details: test sample 0.002 wt %
Experimental: as §4

A. niger = assay: Anti-septic power test (USP XX); type: cell-based, Aspergillus niger; details: test sample 0.002 wt %
Experimental: as §4

C. albicans = assay: Anti-septic power test (USP XX); type: cell-based, Candida albicans; details: test sample 0.002 wt %
Experimental: as §4

[10] = Formulation 1 (chondroitin sodium sulfate 1 wt %)

Row | Substance | MBC (Bacillus cereus IFO 3001) [ppm] | MBC [1] [ppm] | MBC [2] [ppm] | MBC [3] [ppm] | MBC [4] [ppm] | MBC (Proteus rettgeri NIT 96) [ppm] | MBC [5] [ppm] | MBC [6] [ppm] | MBC [7] [ppm] | MIC Escherichia coli K12 W 3110 [8] [ppm] | Minimum hemolytic activity concentration Erythrocyte (Erythrocyte) [ppm] | time at which the desired anti-septic effect was confirmed (E. coli; [10]) | time at which the desired anti-septic effect was confirmed (E. coli; Formulation 2 (taurin 1 wt %)) | time at which the desired anti-septic effect was confirmed (P. aeruginosa; [10]) | time at which the desired anti-septic effect was confirmed (P. aeruginosa; Formulation 2 (taurin 1 wt %)) | time at which the desired anti-septic effect was confirmed (S. aureus; [10]) | time at which the desired anti-septic effect was confirmed (S. aureus; Formulation 2 (taurin 1 wt %)) | time at which the desired anti-septic effect was confirmed (A. niger; [10]) [days] | time at which the desired anti-septic effect was confirmed (A. niger; Formulation 2 (taurin 1 wt %)) [days] | time at which the desired anti-septic effect was confirmed (C. albicans; [10]) [days] | further results
1 | benzalkonium chloride [reference compound] | 4 | 4 | 8 | 16 | 8 | 16 | 32 | <2 | 4 | 8 | 25 | 24 hrs. hr. | 24 hrs. hr. | 24 hrs. hr. | 24 hrs. hr. | 4 hrs. hr. | 4 hrs. hr. | 28 | 28 | 21 | Results (transparency of neutralized solution) ([9]; FA 0.1%, benzalkonium chloride 0.01%): Clouded; Results (transparency of neutralized solution) ([9]; SCA 3%, benzalkonium chloride 0.01%): Clouded; Results (transparency of neutralized solution) ([9]; SDPA 0.05%, benzalkonium chloride 0.01%): Clouded; Results (transparency of neutralized solution) ([9]; SHA 0.2%, benzalkonium chloride 0.01%): Clouded; Results (transparency of neutralized solution) ([9]; SKA 3%, benzalkonium chloride 0.01%): Clouded; transparency of solutions with eye drop components ([9]; summary of Table 9): slightly opaque; time at which the desired anti-septic effect was confirmed (C. albicans; Formulation 2 (taurin 1 wt %)): 21 days
2 | 1,4-bis(N,N-dihexyl-N-methylammoniomethyl)phenylene dichloride [Example 4BAMP-6C] | 4 | <2 | 8 | 16 | <2 | <2 | 16 | <2 | <2 | 2 | 400 | 1 h | 1 h | 1 h | 1 h | 1 h | 1 h | 7 | 14 | 7 | Results (transparency of neutralized solution) ([9]; FA 0.1%, 4BAMP-6C 0.1%): Transparent; Results (transparency of neutralized solution) ([9]; SCA 3%, 4BAMP-6C 0.1%): Transparent; Results (transparency of neutralized solution) ([9]; SDPA 0.05%, 4BAMP-6C 0.1%): Transparent; Results (transparency of neutralized solution) ([9]; SHA 0.2%, 4BAMP-6C 0.1%): Transparent; Results (transparency of neutralized solution) ([9]; SKA 3%, 4BAMP-6C 0.1%): Transparent; time at which the desired anti-septic effect was confirmed (C. albicans; Formulation 2 (taurin 1 wt %)): 7 days
